Measured values published in PubChem BioAssay AID1996.
Values after ≈ are worked out from the molar mass of the structure shown. Residues, ends and D or L forms follow the SMILES beside them.

Settings: buffer; pH 7.4; 200.0 µM

| SMILES | solubility kinetic [µg/mL] |
| --- | --- |
| CN(C)/C=C/C(=O)c1ccccc1 | > 26.3 |
| Cc1ccc(S(=O)(=O)NC(C)C(=O)NC2CC2)cc1 (centres undefined) | 41 (≈ 145 µM) |
| O=C(/C=C/c1c(F)cccc1Cl)N1CCc2ccccc2C1 | 5.9 (≈ 18.7 µM) |
| Cc1ccc(OCC(=O)NCCNC(=O)c2cnccn2)cc1C | 46.3 (≈ 141 µM) |
| C/C(=N\O)c1c(O)cc(-c2ccccc2)n(-c2ccccc2)c1=O | > 48.1 |
| Cc1ccc(S(=O)(=O)N2CCOCC2)cc1NC(=O)COc1ccccc1Cc1ccccc1 | 4.4 (≈ 9.16 µM) |
| Cc1ncc([N+](=O)[O-])n1CC(=O)Nc1ccc(F)c(F)c1 | 6.4 (≈ 21.6 µM) |
| O=C(NCC1CCCO1)c1cc(Br)c(Br)s1 (centres undefined) | > 55.4 |
| O=C1OCC2=C1C(c1ccc(F)cc1)CC(=O)N2c1ccccc1 (centres undefined) | > 48.5 |
| Cl.O=C(O)C1CCN(Cc2ccccn2)CC1 | 34.4 |
| C=CCn1cnc2c(sc3nc(C)cc(C)c32)c1=O | 6.9 (≈ 25.4 µM) |
| CCOC(=O)C1=C(C)NC(C)=C(C(=O)OCC)C1C(=O)OCC(=O)NCc1ccco1 | > 65.2 |
| COc1cccc(-c2onc3ccc(C(=O)/C=C/N(C)C)cc23)c1 | 14.6 (≈ 45.3 µM) |
| CC(OC(=O)CN1C(=O)C2C3C=CC(C4CC34)C2C1=O)C(=O)c1ccccc1 (centres undefined) | > 56.9 |
| O=C(COc1ccc(Cl)cc1[N+](=O)[O-])N1CCCCCC1 | > 46.9 |
| Cc1ccc(-n2ccnc(SCC(=O)NC3CCCC3)c2=O)cc1Cl | 3 (≈ 7.94 µM) |
| COc1ccc(NC(=S)NCc2cccs2)cc1OC | 19.6 (≈ 63.5 µM) |
| Cc1cccc(C(=O)Nc2ccc(Oc3cnccn3)cc2)c1 | 5.6 (≈ 18.3 µM) |
| CCn1c(=O)cc(N2CCN(C(=O)c3ccco3)CC2)[nH]c1=O | > 47.7 |
| COc1ccc(C2c3sc(=O)[nH]c3SCC2C(N)=O)cc1 (centres undefined) | 40 (≈ 124 µM) |
| O=C(CN1N=C(c2ccccc2)CCC1=O)NCc1ccccc1 | > 48.2 |
| CN(C)S(=O)(=O)c1ccc(C(=O)OCC2COC(C)(C)O2)cc1 (centres undefined) | 48.6 (≈ 142 µM) |
| CSc1c(CN2CCN(C)CC2)c2ccccc2n1C.Cl | 52.9 |
| C=CCNc1nc(-c2c(C)nc3ncccn23)cs1 | > 40.7 |

| SMILES | solubility kinetic [µg/mL] |
| --- | --- |
| COc1ccccc1C(=O)NCCC(=O)N1CCCC(C)C1 (centres undefined) | > 45.7 |
| Cc1ccc(S(=O)(=O)NC2=NCN(C(C)C)CN2)cc1 | > 44.5 |
| CCc1ccccc1NC(=O)C1CCN(S(C)(=O)=O)CC1 | > 46.6 |
| Cc1nc(Nc2cccc(O)c2)c2oc3ccccc3c2n1 | 2 (≈ 6.87 µM) |
| Cc1noc(C)c1C(=O)Nc1ccc2ccccc2c1 | 11.2 (≈ 42.1 µM) |
| CN(C)CCNc1ncnc2sc(-c3ccccc3)cc12 | 39.7 (≈ 133 µM) |
| CCOC(=O)C1=C(C)NC(C)=C(C(=O)OC)C1c1ccco1 (centres undefined) | 34.1 (≈ 112 µM) |
| Cc1ccc(NC(=S)NCCN2CCOCC2)cc1F | > 44.6 |
| COCCn1c(SCC(=O)NCCCN2CCCC2=O)nc2ccccc2c1=O | > 62.8 |
| Cc1cc(C)c2c(=O)cc(C(=O)NCc3ccccc3)oc2c1 | < 0.7 |
| Cc1cc(Nc2ccc(Br)cc2)nc(-c2ccccc2O)n1 | < 0.3 |
| CN1CCN(c2oc(-c3ccc([N+](=O)[O-])cc3)nc2C#N)CC1 | 4.1 (≈ 13.1 µM) |
| CN(Cc1ccccc1F)C(=O)c1ccc(Oc2ccccc2)cc1 | 4.2 (≈ 12.5 µM) |
| CCCC#CCN1CCN(C23CC4CC(CC(C4)C2)C3)CC1 | 42.6 (≈ 142 µM) |
| Cc1ccc2c(c1)C(=O)C(=O)N2CCCOc1ccccc1C | 4.9 (≈ 15.8 µM) |
| CCN(c1ccccc1)S(=O)(=O)c1ccc(N2CCN(c3ccc(O)cc3)CC2)nc1 | 2.7 (≈ 6.16 µM) |
| CCOC(=O)C1CCN(Cc2ccc3ccccc3c2)CC1 | 25.9 (≈ 87.1 µM) |
| COc1cccc(NC(=O)Nc2nc(SC(C)(C)C)ns2)c1 | 1.1 (≈ 3.25 µM) |
| CCOC(=O)C(=CNc1cc(OC)ccc1-n1cccc1)C(=O)OCC | 1 (≈ 2.79 µM) |
| COc1ccc(CC(=O)Nc2ccc(N(C)C)c3ccccc23)cc1 | 7.6 (≈ 22.7 µM) |
| CCN(CC(=O)NC1CCS(=O)(=O)C1)S(=O)(=O)c1ccccc1Cl (centres undefined) | > 59.2 |
| CC(=O)c1cn(Cc2ccc(F)cc2)c2ccccc12 | 1.9 (≈ 7.11 µM) |
| O=C(CNS(=O)(=O)c1cccc(C(F)(F)F)c1)NC1CCCCCC1 | 48.7 (≈ 129 µM) |
| Cc1ccc(NC(=O)c2cc3ccccc3o2)cc1 | 1.5 (≈ 5.97 µM) |

| SMILES | solubility kinetic [µg/mL] |
| --- | --- |
| COc1ccc(NC(=O)Nc2ccon2)cc1OC | > 39.5 |
| O=C(NC(=O)c1ccccc1)Nc1ccc(-c2cnco2)cc1 | < 0.2 |
| Fc1ccc(N2CCN(c3cnc4ccccc4n3)CC2)cc1 | 1 (≈ 3.24 µM) |
| COc1ccc(/C(C)=N\O)cc1OC | 16.9 (≈ 86.6 µM) |
| Cc1cccc(Oc2c([N+](=O)[O-])c(=O)n(C)c3ccccc23)c1 | 6.6 (≈ 21.3 µM) |
| O=C(Nc1ccc(Oc2cccnc2)nc1)c1ccc(C(F)(F)F)cc1 | 10.3 (≈ 28.7 µM) |
| CCCCCCCCn1c(=O)c(C(=O)OC)c(N)c2ccccc21 | 0.9 (≈ 2.72 µM) |
| NNC(=O)Cn1c(-c2ccccc2)cc2ccccc21 | > 39.8 |
| Cc1cc(=O)cc(C)n1-c1ccc(F)cc1F | > 35.3 |
| Cc1c(C#N)c(NC(=O)C(C)C)n(Cc2ccccc2)c1C | 8.1 (≈ 27.4 µM) |
| CC(=O)N/C(=C\c1ccccc1)C(=O)OC/C=C/c1ccccc1 | 47.3 (≈ 147 µM) |
| NC(=O)c1cc(S(=O)(=O)NCc2cccs2)cs1 | 43.4 (≈ 144 µM) |
| Cc1nn(C)c(C)c1NC(=O)c1ccc(Br)o1 | > 44.7 |
| CCN(CC)c1cc(C)c2cc(NC(=O)c3ccccc3F)ccc2n1 | 10.7 (≈ 30.4 µM) |
| O=C(CSc1nccn1-c1ccccc1)NO | 32.1 (≈ 129 µM) |
| CC(=O)NC(CC(=O)OCC(=O)Nc1cc(S(=O)(=O)N2CCCCC2)ccc1C)c1ccccc1 (centres undefined) | > 75.2 |
| CCC(Oc1cccc(Cl)c1)C(=O)N1CCCN(C)CC1 (centres undefined) | > 46.6 |
| Cc1cc(=O)[nH]c(SCC(=O)NC2CCCc3ccccc32)n1 (centres undefined) | 32.1 (≈ 97.4 µM) |
| CCCOc1ccc(-c2c(=O)n(O)c3ccccc3[n+]2[O-])cc1 | > 46.8 |
| O=S(=O)(O)c1nc2ccccc2[nH]1 | > 29.7 |
| COc1ccccc1N/C(N)=N/c1nc(C)cc(C)n1 | 38.2 (≈ 141 µM) |
| CC(=O)Nc1ccccc1C(=O)C(=O)NCCc1ccccc1 | 40.5 (≈ 130 µM) |
| CCOC(=O)N1CCC(N2CCN(c3ccccc3)CC2)CC1.Cl | 51.1 |
| O=C(NC(=S)Nc1cccc2c(O)cccc12)c1ccco1 | 9.3 (≈ 29.8 µM) |

| SMILES | solubility kinetic [µg/mL] |
| --- | --- |
| CC(C)c1ccc(S(=O)(=O)NC2CCS(=O)(=O)C2)cc1 (centres undefined) | > 47.6 |
| Cc1cccnc1NC(=O)CCn1c(=O)oc2ccccc21 | > 44.6 |
| Cc1occc1C(=O)N1CCN(c2ccc(Cl)cc2)CC1 | 43.6 (≈ 143 µM) |
| O=S(=O)(Nc1cccnc1)c1ccc(F)cc1 | > 37.8 |
| O=C(CN1C(=O)c2ccccc2C1=O)Nc1ccccc1N1CCOCC1 | > 54.8 |
| O=C(Nc1ccon1)Nc1ccccc1C(F)(F)F | > 40.7 |
| O=C(O)CCC(=O)N(Cc1ccccc1)Cc1ccccc1 | > 44.6 |
| Cl.O=C(COc1ccc(Br)cc1)OCCN1CCCCC1 | > 56.8 |
| O=C(O)c1cc2[nH]c3c(c2cc1Cl)CCCC3 | > 37.5 |
| O=S(=O)(NCCN1CCCC1)c1ccc(C(F)(F)F)cc1 | > 48.4 |
| CC(=Nc1ccccc1O)c1sc2ccccc2c1O | < 0.6 |
| O=C(CSc1nc2ccccc2o1)N1CCOCC1 | > 41.7 |
| COC(=O)C1CCN(C(=O)c2cc(-c3ccco3)nc3ccccc23)CC1 | > 54.7 |
| O=C(Oc1cccc(Cl)c1)N1CCOCC1 | 34.8 (≈ 144 µM) |
| CC(C)(C)c1cc(CCC(=O)NCc2cccnc2)cc(C(C)(C)C)c1O | 36.5 (≈ 99 µM) |
| CCc1nc(NC(=O)c2sc(C)nc2C)sc1C(=O)OC | > 48.8 |
| Cc1ccc(C(=O)NCCc2nnc(SCC(=O)Nc3cccc(C(=O)O)c3)n2C)cc1 | > 68 |
| CC(=O)Nc1ccc(S(=O)(=O)NCC(=O)OCC(=O)c2ccc[nH]2)cc1 | > 56.9 |
| COc1cccc(C(=O)Nc2ccc3[nH]c(=O)[nH]c3c2)c1OC | 27.7 (≈ 88.4 µM) |
| CCc1ncc(C)[nH]1 | > 16.5 |
| CC(=O)C(/C=N/c1ncc(C(F)(F)F)cc1Cl)=C(\C)O | 1.3 (≈ 4.24 µM) |
| COc1cc(C(NC(C)=O)NC(C)=O)ccc1OCc1ccccc1 | > 51.4 |
| CCOc1ccc(NS(=O)(=O)c2cc(C)c(C)cc2C)cc1 | 10.2 (≈ 31.9 µM) |
| COc1cccc(S(=O)(=O)NCC(=O)N2CCCCCC2)c1 | > 49 |

| SMILES | solubility kinetic [µg/mL] |
| --- | --- |
| Nn1c(C2CCCCC2)nc2ccccc2c1=O | > 36.5 |
| O=C(NCc1ccco1)Nc1ccc(OC(F)(F)F)cc1 | 11.1 (≈ 37 µM) |
| Cc1cc(C(=O)N(CCC#N)Cc2cccs2)no1 | > 41.3 |
| Cc1ccc(C(C)NC(=O)Cc2cccs2)cc1C (centres undefined) | > 41 |
| O=C(NCCc1csc(-c2cccnc2)n1)c1cccc(Cl)c1 | > 51.6 |
| COc1ccc(NC(=O)CSCc2ccc(C#N)cc2)c(OC)c1 | > 51.4 |
| NC(=O)/C(=C\c1ccco1)NC(=O)c1ccc(Br)o1 | 42.9 (≈ 132 µM) |
| CC(=O)NC(Cc1ccccc1)C(=O)NC(Cc1ccccc1)C(=O)O (stereo not drawn) (Ac-Phe-Phe-OH; configuration not given here) | 52.4 (≈ 148 µM) |
| Cc1ccc(CNC(=O)COC(=O)c2cc(=O)[nH]c3ccccc23)cc1 | 5.5 (≈ 15.7 µM) |
| COc1ccc(-c2oc(=O)n(C)c2-c2ccc(OC)cc2)cc1 | 17.3 (≈ 55.6 µM) |
| O=C(c1cccc(F)c1F)N1CCCc2ccccc21 | 31.1 (≈ 114 µM) |
| CC(C)CN(CC(C)C)C(=O)Nc1ccc(F)cc1F | 33.2 (≈ 117 µM) |
| O=C(CSc1ccc(-c2ccc(F)cc2)nn1)N1CCOCC1 | > 50 |
| COc1ccc(-c2noc(CN(C)C3CCOCC3)n2)cc1 | > 45.5 |
| Cc1cc(Nc2cccc(Br)c2)c2ccccc2n1 | 11.9 (≈ 38 µM) |
| CNC(=O)Oc1ccc2c(c1)[C@]1(C)CCN(C)C1N2C.O=C(O)c1ccccc1O (some centres undefined) | > 62 |
| Cc1cccc(NS(=O)(=O)c2ccc3[nH]c(=O)oc3c2)c1C | 41.9 (≈ 132 µM) |
| CNc1nc(Cl)c(SC)c(NCc2ccc(F)cc2)n1 | 0.6 (≈ 1.92 µM) |
| CC(C)[C@H](NC(=O)c1ccccc1F)C(=O)OCC(=O)NC1CC1 | 34.3 (≈ 102 µM) |
| O=C1CN=C(c2ccc(F)cc2)c2oc3ccccc3c2N1 | 0.4 (≈ 1.36 µM) |
| C=CCN1C(=O)C(=O)N(CC(=O)NCC(=O)Nc2ccc(F)c(F)c2F)C1=O | > 59.7 |
| Cl.NCc1cc2c3c(c1)CCCN3CCC2 | > 41.3 |
| Cc1ccc(NC(=O)CSc2nncs2)cc1Cl | > 45 |
